One assay concerns the target T1, IKK-complex (Homo sapiens, UniProt O14920+O15111+Q9Y6K9).
T1 construct: IKK-complex was immunoprecipitated with anti-NEMO-antibody; endogenous in cells; host or cells: HeLa
Briefly: Cellular IKK kinase assay: HeLa cells treated with compound, TNF alpha stimulation, IKK-complex immunoprecipitated with anti-NEMO-antibody, I kappaB peptide phosphorylation by alpha screen. Format: cell-based. As for the experimental part: Kinase Assay Protocol: HeLa cells were maintained in Dulbecco's modified Eagle's medium (Invitrogen) supplemented with 10% fetal bovine serum, 2 mM L-glutamine, penicillin (50 units/ml) and streptomycin (50 μg/ml). 24 h before treatment with different compounds HeLa cells were plated at a density of 5×10^6 per well in 100-mm cell culture dishes to 90% confluences.
The cells were incubated with different drugs at the concentration indicated for 1 h, washed twice with PBS and stimulated with 20 ng/ml TNF alpha (Roche). After 7 min the cells were washed twice with ice cold PBS followed by scraping and transferring into a 1.5 ml microcentrifuge tube. After centrifugation by 2000 rpm for 2 min by 4° C. the PBS supernatant was removed and 200 μl Lyse-buffer (10 mM Hepes, pH 7.9, 0.1% NP40, 10 mM, 300 mM Sucrose, 10 mM KCl, 15 mM MgCl2, 1 mM DTT, 0.5 mM PMSF and antipain, aprotinin, leupeptin each 0.75 μg/ml (Sigma) was added to the pellet. The resuspended pellet was incubated on ice for 5 min and centrifuged at 13000 g for 30 s. The supernatant, cytosolic extract, was added to 200 μl TNT-buffer (200 mM NaCl, 20 mM Tris/HCl pH 7.5, 1% Triton X-100). Unspecific binding was blocked by incubation with 3 μg of normal rabbit IgG (Sigma) and 6 mg resuspended and prewashed Protein A Sepharose CI-4B (Pharmacia Biotech) for 30 min by 4° C. followed by immunoprecipitation for 1.5 h at 4° C. with 2 μg of anti-NEMO-antibody (Santa Cruz Biotechnology) and 6 mg resuspented and prewashed Protein A Sepharose CI-4B (Parmacia Biotech). […] 6.6 μl of detection-buffer (20 mM Hepes pH 7.5, 100 mM NaCl, 1% Tween, 0.1 mM BSA, 50 μg/ml Protein A-Acceptor beads, 250 μg/ml Streptavidin-Donor beads (both Perkin-Elmer), 4 nM anti-phospho-IKB antibody (Santa Cruz Biotechnology) was dispensed to each well. After incubation for 1.5 h the plate was measured by alpha screen reader (Perkin Elmer). […]
For orientation: Alpha assays give light when donor and acceptor beads are brought close together.

In assay [1] the test system is I KappaB alpha phosphorylation. Put plainly: P-IkBalpha detection in Western blot of HeLa cell lysates after TNF alpha stimulation. Format: cell-based. The note with it: HeLa cells, 10 and 100 μM. As for the experimental part:
P-IkBα Detektion in Western-Blot Protocol: HeLa cells were maintained in Dulbecco's modified Eagle's medium (Invitrogen) supplemented with 10% fetal bovine serum, 2 mM L-glutamine, penicillin (50 units/ml) and streptomycin (50 μg/ml). 24 h before treatment with different compounds HeLa cells were plated at a density of 5×10^6 per well in 100-mm cell culture dishes to 90% confluences.
The cells were incubated with different drugs at the concentration indicated for 1 h, washed twice with PBS and stimulated with 20 ng/ml TNF alpha (Roche). After 7 min the cells were washed twice with ice cold PBS followed by scraping and transferring into a 1.5 ml micro centrifuge tube. After centrifugation by 2000 rpm for 2 min by 4° C. the PBS supernatant was removed and 200 μl lysis-buffer (10 mM Hepes, pH 7.9, 0.1% NP40, 10 mM, 300 mM Sucrose, 10 mM KCl, 15 mM MgCl2, 1 mM DTT, 0.5 mM PMSF and antipain, aprotinin, leupeptin each 0.75 μg/ml (Sigma) was added to the pellet. The resuspended pellet was incubated on ice for 5 min and centrifuged at 13000 g for 30 s. 30 μl of the supernatant, cytosolic extract, was diluted with Laemmli-buffer (2% SDS, 2% 2-Mercaptoethanol, 0.01% Bromophenol blue, 8% Glycerine), heated by 60° C. for 10 min and loaded to a 4-20% polyacrylamid gels (BioRad). After electrophoresis the proteins were transferred to a nitrocellulose membrane using the wet blotting technique. First the membrane was blocked with Roti-Block (Roth) and afterwards incubated with monoclonal antibodies against P-IkBalpha (Santa Cruz Biotechnology, used at 1:200 dilution). This incubation was followed by the appropriate horseradish peroxidase-conjugated secondary antibody (Dianova) at 1:10000 dilution. Antibody binding was visualized on x-ray film using the Western blot Chemiluminescent Reagent Detection Kit (Santa Cruz).

The subject of assay [2] is systemic TNF alpha release. Put plainly: LPS induced systemic inflammation in rats, serum TNF alpha by ELISA. In kind it is in vivo. The note with it: compound 1 μg/g IV pre-treatment, LPS 0.33 μg/g IV. As for the experimental part:
Systemic inflammatory response in rats was induced by lipopolysaccharide (LPS) shock (IV administration of LPS 0.33 μg/g). Inflammatory and inhibition of inflammation by IV administration of compound 56 (1 μg/g) to rats was determined by TNF alphaquantification in […] serum. TNF alpha was detected with an ELISA kit (Pierce) according to the manufacturer's instructions.
On the technique in general: ELISA stands for enzyme-linked immunosorbent assay.

What is called IC50 is the concentration at which inhibition is half-maximal.

T1 sequence (O14920 whole entry): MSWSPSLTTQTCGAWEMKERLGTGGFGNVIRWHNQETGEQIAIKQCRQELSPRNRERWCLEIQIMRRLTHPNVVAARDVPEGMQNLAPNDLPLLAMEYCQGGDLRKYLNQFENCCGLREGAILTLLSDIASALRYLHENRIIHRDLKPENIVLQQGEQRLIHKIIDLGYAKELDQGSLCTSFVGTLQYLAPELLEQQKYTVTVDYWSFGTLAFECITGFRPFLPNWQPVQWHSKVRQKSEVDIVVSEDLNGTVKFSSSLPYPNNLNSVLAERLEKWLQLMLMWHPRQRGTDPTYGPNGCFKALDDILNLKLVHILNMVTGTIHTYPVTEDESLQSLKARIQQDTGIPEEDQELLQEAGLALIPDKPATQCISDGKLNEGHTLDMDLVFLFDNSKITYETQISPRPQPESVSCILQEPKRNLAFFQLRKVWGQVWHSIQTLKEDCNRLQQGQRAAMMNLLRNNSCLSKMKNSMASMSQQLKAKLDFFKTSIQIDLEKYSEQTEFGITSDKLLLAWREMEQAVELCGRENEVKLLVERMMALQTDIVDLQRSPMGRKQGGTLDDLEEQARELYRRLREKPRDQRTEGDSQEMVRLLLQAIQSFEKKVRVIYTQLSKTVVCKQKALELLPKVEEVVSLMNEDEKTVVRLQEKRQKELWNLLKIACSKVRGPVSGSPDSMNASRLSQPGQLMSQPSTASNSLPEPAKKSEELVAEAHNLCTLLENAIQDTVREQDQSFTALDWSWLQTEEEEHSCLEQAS
T1 sequence (O15111 whole entry): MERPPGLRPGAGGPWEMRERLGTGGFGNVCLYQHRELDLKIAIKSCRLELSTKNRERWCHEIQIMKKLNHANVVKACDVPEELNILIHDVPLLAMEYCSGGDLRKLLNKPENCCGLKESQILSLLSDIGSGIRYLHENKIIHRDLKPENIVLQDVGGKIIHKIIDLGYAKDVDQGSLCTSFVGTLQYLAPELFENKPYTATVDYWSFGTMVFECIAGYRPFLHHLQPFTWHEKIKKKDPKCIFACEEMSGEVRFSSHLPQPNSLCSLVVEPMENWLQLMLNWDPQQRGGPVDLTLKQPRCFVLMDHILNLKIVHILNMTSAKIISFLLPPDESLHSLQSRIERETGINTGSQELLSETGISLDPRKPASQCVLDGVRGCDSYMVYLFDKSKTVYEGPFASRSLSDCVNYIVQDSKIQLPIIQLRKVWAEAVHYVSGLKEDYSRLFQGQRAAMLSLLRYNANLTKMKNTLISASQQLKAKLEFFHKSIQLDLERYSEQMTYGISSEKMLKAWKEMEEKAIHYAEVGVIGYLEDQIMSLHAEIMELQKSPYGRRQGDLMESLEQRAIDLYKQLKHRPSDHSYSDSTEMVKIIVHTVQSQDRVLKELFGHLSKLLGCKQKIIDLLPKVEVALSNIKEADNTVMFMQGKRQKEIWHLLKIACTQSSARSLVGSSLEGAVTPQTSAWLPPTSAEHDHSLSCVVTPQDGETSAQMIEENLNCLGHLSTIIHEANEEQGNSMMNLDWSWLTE
T1 sequence (Q9Y6K9 whole entry): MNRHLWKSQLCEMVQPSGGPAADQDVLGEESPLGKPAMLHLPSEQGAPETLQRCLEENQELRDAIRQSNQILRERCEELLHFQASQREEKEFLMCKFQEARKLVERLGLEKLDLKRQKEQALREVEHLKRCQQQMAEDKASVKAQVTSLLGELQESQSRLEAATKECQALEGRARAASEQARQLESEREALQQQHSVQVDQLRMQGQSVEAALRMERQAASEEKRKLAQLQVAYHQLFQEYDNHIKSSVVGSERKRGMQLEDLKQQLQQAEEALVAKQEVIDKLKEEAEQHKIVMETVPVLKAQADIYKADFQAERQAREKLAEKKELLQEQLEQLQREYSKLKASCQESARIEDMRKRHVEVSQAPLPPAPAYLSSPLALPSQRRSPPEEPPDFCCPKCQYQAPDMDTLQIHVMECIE

For the compound `CCOC(=O)C1=C(C)N=c2s/c(=C/c3ccc(-c4cccc(C(=O)O)c4)o3)c(=O)n2C1c1ccc(Cl)cc1` (stereo not shown) [COM 56, 2-[5-(3-Carboxyphenyl)-furan-2-ylmethylene]-5-(4-chlorophenyl)-7-methyl-3-oxo-2,3-dihydro-5H-thiazolo[3,2-a]pyrimidine-6-carboxylic acid ethyl ester], the IC50 at IKK-complex (HeLa cells, TNF alpha 20 ng/ml, alpha screen, n=4, read-out: IC50 for inhibition of IKK activity (phosphorylation of substrate peptide for I KappaB)) is around 850 nM. Also, the “potency to inhibit the IKK activity, higher than the other 73 family members” value on IKK-complex (cellular assay with HeLa cells) came out at 10 times. The “effect on IkappaB phosphorylation (Western blot), comparison of COM 73 and COM 54 family” value in assay [1] is on record as “concentration-dependently inhibited”. Besides, the “TNF alpha concentrations in rat serum after LPS” value in assay [2] is on record as “significantly inhibited”.
